In patent US20060189581A1, “Compounds and methods for treating transplant rejection” (AtheroGenics, Inc., priority 1997, published 2006):
Entries after “also recorded” stand apart in the source; their conditions may differ. Read-outs that look alike come from different tables or passages of the source.

Assays:
[1] = Plasma compound levels in the rat aortic allograft study; type: in vivo; settings: Lewis, subcutaneous, after 90 days of dosing, read-out: trough plasma levels
Description: (§1) Compound A was administered subcutaneously to recipient animals three days prior to the surgery and once daily for 90 days thereafter. […] Thereafter, the dose was reduced to 30 mg/kg/d for 6 days and then further reduced to 5 mg/kg/d for the remainder of the study.
(§2) On day 90, the allograft segment was removed, fixed in 10% buffered formalin and paraffin embedded. Sections were stained with von Geisson's elastic stain, and intima-to-media area (IM) ratio and percent luminal narrowing (% LN) were assessed by digital morphometry (See FIGS. 1 and 2). Blood was collected at regular intervals throughout the study and plasma evaluated for compound levels (See FIG. 3).

[2] = system: ACI rat aorta transplanted into Lewis rat (graft arteriosclerosis); test: Rat aortic allograft model (graft arteriosclerosis); type: in vivo
Description: Compound A was evaluated for graft arteriosclerosis resulting from aortic heterotropic transplantation. This is a model of graft arteriopathy which is the major obstacle to long term success of solid organ transplantation.
Donor descending aortas from ACI rats were heterotypically transplanted into Lewis rat abdomens in end-to-end fashion with minimal ischemic time. 55 rats were assigned to five groups as follows:
as §1, §2

SMILES: CC(C)(Sc1cc(C(C)(C)C)c(O)c(C(C)(C)C)c1)Sc1cc(C(C)(C)C)c(OCCCC(=O)O)c(C(C)(C)C)c1 [Compound A, 4-[4-[[1-[[3,5-bis(1,1-dimethylethyl)-4-hydroxyphenyl]thio]-1-methylethyl]thio]-2,6-bis(1,1-dimethylethyl)phenoxy]butyric acid]
- concentration at 90 days ([1]; 10 mg/kg/d subcutaneously): 10 µM
- concentration at 90 days ([1]; 20 mg/kg/d subcutaneously): 18 µM
- concentration at 90 days ([1]; 40/30/5 mg/kg/d subcutaneously): 28 µM
- IM ratio and % LN compared to the vehicle group ([2]; 20 mg and 40/30/5 mg/kg/d doses, day 90): significantly lower
- efficacy and gross toxicity ([2]; 20 mg/kg/d subcutaneously): efficacious without grossly discernable toxic side effects
- adverse findings (body weight, skin) ([2]; 40 mg/kg/d subcutaneously, until the dose was reduced): failure to gain weight and skin irritation; also recorded: initially lost weight
- inhibition of aortic neointimal growth ([2]; 10, 20 and 40/30/5 mg/kg/d subcutaneously, 90 days): dose-dependent inhibition
- tolerability of treatment ([2]; 10 and 20 mg/kg/d subcutaneously, animals regained weight post surgery): well tolerated
- percent inhibition of the % LN (percent luminal narrowing) ([2]; 40/30/5 mg/kg/d subcutaneously, day 90, compared to vehicle control): 52%
